# Measurements taken from patent US20210220340A1, “COMPOSITION FOR PREVENTION OR TREATMENT OF NEURODEGENERATIVE DISEASE” (THE ASAN FOUNDATION, priority 2018, published 2021).
# Assays:
# all PDE isoforms = test: HTS using all PDE isoforms as targets; format: biochemical
# Description: (§1) Compounds included in the library of 800 FDA-approved drugs were diluted 1/4 from a concentration of 100 μM and dispensed into each well in 96-well plates, and mixed with a PDE reactant to allow a PDE reaction with the drug for 1 hour at a constant temperature.
# The experiment was carried out in the same manner as used in screening of the FDA-approved drug library. […] Each of the screening library drugs were diluted 1/4 from 100 μM and dispensed into each well in 96-well plates, and mixed with a PDE reactant, followed by allowing a reaction between the drug and PDE for 1 hour for storage. After a stop solution was mixed with a AMP detection agent, the mixture was dispensed at 20 μl per well to allow a reaction for 10 minutes, followed by immediately measuring luminescence, and the experiment was performed according to a protocol provided by the kit used herein.
# The first selection started with PDE3 as a target, and after candidate drugs were selected, all PDE isoforms were tested.
# cathepsin B = test: Lysosomal function activity in astrocytes: degree of hydrolysis of cathepsin B; format: cell-based, mouse; settings: bafilomycin A1-treated mouse astrocytes
# Description: Samples stained with enzymatic dyes such as cathepsin B and cathepsin L were administered into the cell culture to allow a reaction for 30 minutes, and changes in activity of lysosomes in cells were confirmed using a confocal microscope.
# Astrocytes were stained with a fluorescence-tagged lysosomal protein, and the degrees of hydrolysis of cathepsin B and cathepsin L, which are lysosomal proteins, were analyzed.
# FIG. 21 is a set of time-dependent confocal microscope images of mouse astrocytes, which are treated with bafilomycin A1, which is a vATPase inhibitor, to assess the degree of hydrolysis of cathepsin B (top) and cathepsin L (bottom).
# mouse pericytes [1] = test: Zinc concentration in pericytes (Zinpyr-1 fluorescence); format: cell-based
# Source text: FIG. 20 is a set of confocal microscope images of groups of mouse pericytes, which are not treated (CTL) or treated with finally-selected amlexanox (AMX) (PDEi), in which, to measure a zinc concentration, fluorescence intensity was detected by treating the cells with a fluorescent dye (Zinpyr-1) for detecting zinc ions.
# mouse pericytes [2] = test: Lysosome pH in bafilomycin A1-treated pericytes (LysoSensor, confocal microscope); format: cell-based; settings: cells alkalized by bafilomycin A1
# Source text: A system that can visualize changes in intracellular lysosome pH with LysoSensor, which is a pH-sensitive lysosomal dye, in mouse pericytes using a confocal microscope was established (refer to Example 6) to observe whether amlexanox (AMX) is involved in the pH change of lysosomes in cells.
# FIG. 19 is a set of time-dependent confocal microscope images (left) of mouse pericytes when being treated with Bafilomycin A1, which is a vATPase inhibitor, and then stained with LysoSensor, and quantified data (right) thereof.
# Here, the images on the left side of FIG. 19 are obtained by treating mouse pericytes with bafilomycin A1, which is a vATPase inhibitor, and analyzing the cells using LysoSensor over time by a confocal microscope (top), and by treating the bafilomycin A1-treated mouse pericytes with the finally selected amlexanox (AMX) and analyzing the cells using LysoSensor over time by a confocal microscope (bottom).
# PDE3 = test: HTS drug screening for PDE3 (PDELight HTS cAMP Phosphodiesterase Kit, luminescence); format: biochemical; settings: compared with conventional drugs
# Description: For drug screening, high-throughput screening (HTS) was used.
# In addition, as described above, in the present invention, to screen materials for treating neurodegenerative diseases such as Alzheimer's disease and Lou Gehrig's disease, among PDE isoforms, PDE3 was selected as a target, and an optimized concentration to be used in the experiment was selected to construct a drug screening system as shown in FIG. 9.
# as §1
# For drug efficacy screening for PDE inhibition, HTS was used. cAMP-based screening was conducted with an FDA-approved drug library and a Selleckchem library based on the conventional PDE inhibitor. The experiment was carried out in the same manner as used in screening of the FDA-approved drug library. Compared with cilostazol, which is known as a PDE3 inhibitor, drugs with high inhibitory activity were selected. […] After a stop solution was mixed with a AMP detection agent, the mixture was dispensed at 20 μl per well to allow a reaction for 10 minutes, followed by immediately measuring luminescence, and the experiment was performed according to a protocol provided by the kit used herein.
structure (smiles),measurement,setting,value
"CC(C)c1ccc2oc3nc(N)c(C(=O)O)cc3c(=O)c2c1 [amlexanox, 2-amino-7-isopropyl-5-oxo-5H-[1]benzopyrano[2,3-b] pyridine-3-carboxylic acid]",reducing efficacy for all PDE isoforms,all PDE isoforms,excellent reducing efficacy
same,time to restore lysosomal activity of cathepsin B to the original state,cathepsin B,≤ 60 min
same,concentration of zinc in the cell,mouse pericytes [1],restored and increased to a normal level
same,time to restore (acidify) the lysosome pH environment to the original state,mouse pericytes [2],≤ 60 minutes
same,inhibitory effect specific for PDE3,PDE3,significant inhibitory effect
